Assay results reported in PubChem BioAssay (NCI).
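Tested at 5 concentrations; 48 h exposure; 96-well plates; endpoints linearly interpolated, else capped at highest concentration. The concentration for 50% growth inhibition is given as GI50. The concentration for full growth arrest is given as TGI.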

Legend:
Assay in all cases: NCI anticancer screen, dose series, 48 h
EKVX NSCLC = test system: EKVX NSCLC
786-0 renal = test system: 786-0 renal
NCI-H23 lung = test system: NCI-H23 lung
OVCAR-8 ovarian = test system: OVCAR-8 ovarian
UACC-257 melanoma = test system: UACC-257 melanoma
ACHN renal = test system: ACHN renal
SK-MEL-28 melanoma = test system: SK-MEL-28 melanoma
U251 CNS = test system: U251 CNS
TK-10 renal = test system: TK-10 renal
SF-295 CNS = test system: SF-295 CNS
HOP-62 NSCLC = test system: HOP-62 NSCLC
OVCAR-3 ovarian = test system: OVCAR-3 ovarian
MOLT-4 leukemia = test system: MOLT-4 leukemia
KM12 colon = test system: KM12 colon
CAKI-1 renal = test system: CAKI-1 renal
PC-3 prostate = test system: PC-3 prostate
NCI-H460 lung = test system: NCI-H460 lung
DU-145 prostate = test system: DU-145 prostate
RPMI-8226 leukemia = test system: RPMI-8226 leukemia
NCI-H522 lung = test system: NCI-H522 lung
MDA-MB-468 breast = test system: MDA-MB-468 breast
OVCAR-5 ovarian = test system: OVCAR-5 ovarian
SNB-19 CNS = test system: SNB-19 CNS
RXF 393 renal = test system: RXF 393 renal
HCT-116 colon = test system: HCT-116 colon
UO-31 renal = test system: UO-31 renal
OVCAR-4 ovarian = test system: OVCAR-4 ovarian
UACC-62 melanoma = test system: UACC-62 melanoma
T-47D breast = test system: T-47D breast
SK-OV-3 ovarian = test system: SK-OV-3 ovarian
CCRF-CEM leukemia = test system: CCRF-CEM leukemia
MALME-3M melanoma = test system: MALME-3M melanoma
M14 melanoma = test system: M14 melanoma
SK-MEL-2 melanoma = test system: SK-MEL-2 melanoma
MCF7 breast = test system: MCF7 breast
SF-268 CNS = test system: SF-268 CNS
SN12C renal = test system: SN12C renal
HS 578T breast = test system: HS 578T breast
HT29 colon = test system: HT29 colon
BT-549 breast = test system: BT-549 breast
SK-MEL-5 melanoma = test system: SK-MEL-5 melanoma
IGROV1 ovarian = test system: IGROV1 ovarian
COLO 205 colon = test system: COLO 205 colon
MDA-MB-435 = test system: MDA-MB-435
NCI-H226 lung = test system: NCI-H226 lung
HCT-15 colon = test system: HCT-15 colon
SW-620 colon = test system: SW-620 colon
HCC-2998 colon = test system: HCC-2998 colon
SR leukemia = test system: SR leukemia
SNB-75 CNS = test system: SNB-75 CNS
MDA-MB-231 breast = test system: MDA-MB-231 breast
A549 NSCLC = test system: A549 NSCLC
SF-539 CNS = test system: SF-539 CNS
HL-60(TB) leukemia = test system: HL-60(TB) leukemia
A498 renal = test system: A498 renal
K-562 leukemia = test system: K-562 leukemia
LOX IMVI melanoma = test system: LOX IMVI melanoma
HOP-92 NSCLC = test system: HOP-92 NSCLC

O=C(/C=C/c1cccc(Br)c1)c1nc2ccccc2n1Cc1ccc(Br)cc1
GI50 (EKVX NSCLC): 2.4 µM | TGI (EKVX NSCLC): 7.64 µM | GI50 (786-0 renal): 1.86 µM | TGI (786-0 renal): 3.7 µM | GI50 (NCI-H23 lung): 1.77 µM | TGI (NCI-H23 lung): 3.99 µM | GI50 (OVCAR-8 ovarian): 2.15 µM | TGI (OVCAR-8 ovarian): 5.71 µM | GI50 (UACC-257 melanoma): 3.04 µM | TGI (UACC-257 melanoma): 12 µM | GI50 (ACHN renal): 2.41 µM | TGI (ACHN renal): 6.53 µM | GI50 (SK-MEL-28 melanoma): 1.82 µM | TGI (SK-MEL-28 melanoma): 3.68 µM | GI50 (U251 CNS): 1.7 µM | TGI (U251 CNS): 3.38 µM | GI50 (TK-10 renal): 3.07 µM | TGI (TK-10 renal): 11.6 µM | GI50 (SF-295 CNS): 2.07 µM | TGI (SF-295 CNS): 5.11 µM | GI50 (HOP-62 NSCLC): 2.16 µM | TGI (HOP-62 NSCLC): 4.76 µM | GI50 (OVCAR-3 ovarian): 1.56 µM | TGI (OVCAR-3 ovarian): 3.3 µM | GI50 (MOLT-4 leukemia): 2.11 µM | TGI (MOLT-4 leukemia): 9.16 µM | GI50 (KM12 colon): 2.53 µM | TGI (KM12 colon): 7.44 µM | GI50 (CAKI-1 renal): 1.85 µM | TGI (CAKI-1 renal): 5.35 µM | GI50 (PC-3 prostate): 3.3 µM | TGI (PC-3 prostate): 14.9 µM | GI50 (NCI-H460 lung): 1.77 µM | TGI (NCI-H460 lung): 3.87 µM | GI50 (DU-145 prostate): 4.1 µM | TGI (DU-145 prostate): 15.9 µM | GI50 (RPMI-8226 leukemia): 2.39 µM | TGI (RPMI-8226 leukemia): 8.27 µM | GI50 (NCI-H522 lung): 1.73 µM | TGI (NCI-H522 lung): 3.48 µM | GI50 (MDA-MB-468 breast): 1.87 µM | TGI (MDA-MB-468 breast): 3.85 µM | GI50 (OVCAR-5 ovarian): 2.06 µM | TGI (OVCAR-5 ovarian): 4.08 µM | GI50 (SNB-19 CNS): 1.77 µM | TGI (SNB-19 CNS): 3.64 µM | GI50 (RXF 393 renal): 1.54 µM | TGI (RXF 393 renal): 2.95 µM | GI50 (HCT-116 colon): 1.67 µM | TGI (HCT-116 colon): 3.14 µM | GI50 (UO-31 renal): 1.37 µM | TGI (UO-31 renal): 2.78 µM | GI50 (OVCAR-4 ovarian): 4.07 µM | TGI (OVCAR-4 ovarian): > 100 µM | GI50 (UACC-62 melanoma): 1.54 µM | TGI (UACC-62 melanoma): 3.28 µM | GI50 (T-47D breast): 2.33 µM | TGI (T-47D breast): 9.62 µM | GI50 (SK-OV-3 ovarian): 14.4 µM | TGI (SK-OV-3 ovarian): > 100 µM | GI50 (CCRF-CEM leukemia): 2.09 µM | TGI (CCRF-CEM leukemia): > 100 µM | GI50 (MALME-3M melanoma): 1.91 µM | TGI (MALME-3M melanoma): 3.97 µM | GI50 (M14 melanoma): 1.77 µM | TGI (M14 melanoma): 3.59 µM | GI50 (SK-MEL-2 melanoma): 1.66 µM | TGI (SK-MEL-2 melanoma): 3.29 µM | GI50 (MCF7 breast): 1.7 µM | TGI (MCF7 breast): 5.71 µM | GI50 (SF-268 CNS): 4.93 µM | TGI (SF-268 CNS): 71.7 µM | GI50 (SN12C renal): 3.42 µM | TGI (SN12C renal): 12.9 µM | GI50 (HS 578T breast): 3.71 µM | TGI (HS 578T breast): > 100 µM | GI50 (HT29 colon): 2.13 µM | TGI (HT29 colon): 4.9 µM | GI50 (BT-549 breast): 1.77 µM | TGI (BT-549 breast): 3.55 µM | GI50 (SK-MEL-5 melanoma): 1.7 µM | TGI (SK-MEL-5 melanoma): 3.55 µM | GI50 (IGROV1 ovarian): 2.16 µM | TGI (IGROV1 ovarian): 5.4 µM | GI50 (COLO 205 colon): 1.99 µM | TGI (COLO 205 colon): 4.11 µM | GI50 (MDA-MB-435): 2.01 µM | TGI (MDA-MB-435): 4.79 µM | GI50 (NCI-H226 lung): 2.45 µM | TGI (NCI-H226 lung): 6.13 µM | GI50 (HCT-15 colon): 1.56 µM | TGI (HCT-15 colon): 3.19 µM | GI50 (SW-620 colon): 1.6 µM | TGI (SW-620 colon): 3.59 µM | GI50 (HCC-2998 colon): 1.69 µM | TGI (HCC-2998 colon): 3.12 µM | GI50 (SR leukemia): 2.53 µM | TGI (SR leukemia): 8.96 µM | GI50 (SNB-75 CNS): 3.4 µM | TGI (SNB-75 CNS): 25.2 µM | GI50 (MDA-MB-231 breast): 2.06 µM | TGI (MDA-MB-231 breast): 4.61 µM | GI50 (A549 NSCLC): 3.97 µM | TGI (A549 NSCLC): > 100 µM | GI50 (SF-539 CNS): 1.99 µM | TGI (SF-539 CNS): 3.92 µM | GI50 (HL-60(TB) leukemia): 1.75 µM | TGI (HL-60(TB) leukemia): 5.12 µM | GI50 (A498 renal): 13.5 µM | TGI (A498 renal): 28.1 µM | GI50 (K-562 leukemia): 2.6 µM | TGI (K-562 leukemia): > 100 µM | GI50 (LOX IMVI melanoma): 1.5 µM | TGI (LOX IMVI melanoma): 2.9 µM | GI50 (HOP-92 NSCLC): 1.6 µM | TGI (HOP-92 NSCLC): 6.46 µM
